From ChEMBL document CHEMBL3352587
Activity calls are given as the source filed them. No cut-off for these calls is given here.

System: Trypanosoma cruzi
Experiment: Inhibition of recombinant Trypanosoma cruzi trans-sialidase catalytic N-terminal domain preincubated at 1 mM for 10 mins by continuous fluorimetric assay

Row | SMILES | inhibition
1 | COC(=O)c1ccc(O[C@@H]2O[C@H](CO)[C@H](O)[C@H](OCC(=O)O)[C@H]2O)c([N+](=O)[O-])c1 | 21%
2 | COC(=O)c1ccc(O[C@@H]2O[C@H](CO)[C@H](O)[C@H](OCC#N)[C@H]2O)cc1 | 7%
3 | COC(=O)c1ccc(O[C@@H]2O[C@H](CO)[C@H](O)[C@H](OCc3nnn[nH]3)[C@H]2O)cc1 | inactive
4 | COC(=O)c1ccc(O[C@@H]2O[C@H](CO)[C@H](O)[C@H](OCC#N)[C@H]2O)c([N+](=O)[O-])c1 | inactive
5 | Cc1ncc(COP(=O)(O)O)c(C=O)c1O | 68%
6 | COC(=O)c1ccc(O[C@@H]2O[C@H](CO)[C@H](O)[C@H](OCC(=O)O)[C@H]2O)cc1 | inactive
7 | COC(=O)c1ccc(O[C@@H]2O[C@H](CO)[C@H](O)[C@H](OCC(=O)OC(C)(C)C)[C@H]2O)cc1 | inactive
8 | COC(=O)c1ccc(O[C@@H]2O[C@H](CO)[C@H](O)[C@H](OC)[C@H]2O)cc1 | 7%
9 | COC(=O)c1ccc(O[C@@H]2O[C@H](CO)[C@H](O)[C@H](OC)[C@H]2O)c([N+](=O)[O-])c1 | 16%
10 | CCCCCCCCO[C@@H]1O[C@H](CO)[C@H](O)[C@H](OC)[C@H]1O | 13%
11 | COC(=O)c1ccc(O[C@@H]2O[C@H](CO)[C@H](O)[C@H](O)[C@H]2O)c([N+](=O)[O-])c1 | 16%
12 | COC(=O)c1ccc(O[C@@H]2O[C@H](CO)[C@H](O)[C@H](OCC(=O)OC(C)(C)C)[C@H]2O)c([N+](=O)[O-])c1 | inactive
13 | COC(=O)c1ccc(O[C@@H]2O[C@H](CO)[C@H](O)[C@H](OCc3nnn[nH]3)[C@H]2O)c([N+](=O)[O-])c1 | 18%
14 | COC(=O)c1ccc(O[C@@H]2O[C@H](CO)[C@H](O)[C@H](O)[C@H]2O)cc1 | 11%
